Source: PubChem BioAssay AID588343 (Broad Institute, 2011)
Values joined by “and” are separate entries in the source; they are usually repeats but may differ in a detail not shown here. Identical values can stand only once. Inconclusive results are not listed.

Test system: HEK293 LMP1 TES2 NF-kB luciferase reporter, 16 h
Experiment: EBV LMP1 TES2 canonical NF-kB signalling blockers – cell-based, HEK293, luciferase, cherry-pick, dose response (AID 588343);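 also: potency of compounds lowering the induced NF-kB luciferase signal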

SMILES	AC50
COc1ccc(O)c2c(=O)c3c(OC)cc4c(c3oc12)C1C=COC1O4 (stereo unspecified)	698 nM
Cc1ccc(C(=O)Nc2cccc(C(F)(F)F)c2)cc1NC(=O)c1ccno1	816 nM and 5400 nM
Nc1ccn([C@@H]2O[C@H](CO)[C@@H](O)C2O)c(=O)n1 (stereo partly specified)	4970 nM
CCN1CCN(Cc2ccc(NC(=O)c3ccc(C)c(NC(=O)c4cccc5[nH]ccc45)c3)cc2C(F)(F)F)CC1	418 nM and 146 nM
Nc1ccn([C@@H]2O[C@H](CO)[C@@H](O)[C@@H]2O)c(=O)n1	13200 nM
CCN1CCN(Cc2ccc(NC(=O)c3ccc(C)c(NC(=O)N4CCNC4=O)c3)cc2C(F)(F)F)CC1	484 nM and 1060 nM and 977 nM
